Laboratory results published in patent publication US20240292836A1, “AGENTS FOR REPELLING, KNOCKING DOWN, AND/OR KILLING BLOOD-SUCKING ARTHROPODS AND USES THEREOF” (The United States of America, as represented by the …, priority 2023, published 2024).
Values joined by “and” are separate entries in the source; they are usually repeats but may differ in a detail not shown here. Equal entries are not always repeated.

Experiments:
[1] = system: female Aedes aegypti adults; assay: Arm-in-cage cloth-patch in vivo assay (topical repellency); settings: for Minimum Effective Dose (MED): Mean ± SEM, lowest dosage with five or fewer bites through repellent-treated cloth in 1-minute exposure, at least three volunteers; for topical repellency (in words): initial screening dose of 0.187 mg/cm^2
Description: Arm-in-Cage Test Cloth-Patch in vivo Assay Pyrethroid-susceptible yellow fever mosquitoes Ae. aegypti (Orlando strain) were reared in the United States Department of Agriculture Mosquito and Fly Research Unit in Gainesville, FL under standard protocols. Three to seven-day-old, starved female mosquitoes were collected using a “draw box” (Posey, K. and Schreck, C. E, 1981, “An airflow apparatus for selecting female mosquitoes for use in repellent and attraction studies” Mosquito News 41: 566-568; US. Department of Agriculture, 1977, Repellent activity of compounds submitted by Walter Reed Army Institute of Research. Part 1. Protection time and minimum effective dosage against Aedes aegypti mosquitoes. Tech. Bull. No. 1549) and were placed in cages at an approximate density 200 mosquitoes/cage. Repellency was determined according to a standard protocol (Bernier, U. R., et al, 2022. “Evaluation and application of repellent-treated uniform/clothing and textiles against vector mosquitoes,” In Advances in Arthropod Repellents (pp. 69-94). Academic Press) and reported as the minimum effective dosage (MED). […] A nylon leg stocking was placed over the arm to prevent direct contact of the repellent-treated cloth patch with the skin. […]. Cloth was treated by placing a rolled bandage (50 cm^2) into each vial containing 1 mL of solution and allowing the patch to absorb the solution completely. The cloth was taped over a 4 by 9-cm opening cut into a vinyl plastic sheet that was draped around the volunteers' arms and taped in place. The cloth was air-dried approximately 15 min before conducting each test. The work reported here is an average of the MED for at least three volunteers. Each volunteer covered his or her arm with a nylon stocking to avoid contact between the skin and the treated cloth and wore a rubber glove to prevent mosquito bites on the hand.
. The minimum effective dose (MED) was determined for each repellent and subject, defined as the lowest concentration that prevents biting). MEDs from each subject were pooled and reported as the average among all replicates/subjects with SEM. A minimum of 3 replicates were performed on at least three human subjects. Written informed consent was obtained for all human subjects used in this study in accordance with IRB protocol #20193320, as approved by the WCG™ IRB.
(§1) Statistical Analyses: Student's T-test was used to compare the means between tested compound and DEET and Icaridin in the arm-in-cage in vivo assay and neurophysiological study.

[2] = system: female Aedes aegypti adults; assay: High-throughput in vitro screening assay, spatial repellency; type: in vivo; settings: for 30-minute RD50 compared with that of DEET: 30 minutes, α = 0.05; for RD50 (30 min), half-repellent dose / RD50 (60 min), half-repellent dose: dose per filter paper surface area, 95% CI; for spatial repellency (in words): highest-tested dose of 100 μg/cm^2
Description: A high-throughput screening method for evaluating spatial repellency and vapor toxicity, described by Jiang S., et al. (2019, “High-Throughput Screening Method for Evaluating Spatial Repellency and Vapour Toxicity to Mosquitoes,” Med. Vet. Entomol. 33: 388-396), was used for this study. As shown in FIG. 2 of Jiang S., et al., assay tubes were constructed by covering 12.5 cm glass tubes on one side with netting secured by a rubber band. The tubes were used in horizontal orientation. Adult mosquitos 2-7 days old were anesthetized on ice for approximately 5 minutes and 16 females were transferred to each tube. The other end of the tube was then closed with netting and a rubber band.
The conical ends of 50 mL centrifuge tubes (Eppendorf, Enfield, Connecticut, USA) were cut at approximately the 10 mL mark to create the end caps for the assay tubes. […] For repellency tests, filter papers for the “untreated” side of the assay tube received pure acetone, whereas filter papers for the “treated” side received acetone solution containing a dissolved compound of interest. For knockdown tests, both filter papers were treated with acetone solution containing one or more compounds of interest. Acetone on both filter papers served as negative controls.
For repellency assays, filter papers were given 10 minutes of evaporation time before being placed into the end caps with forceps (Jiang S., et al. 2019, Supra). For knockdown assays, filter papers were given 5 minutes of evaporation time before being placed into the end caps. […] Assay tubes were capped such that the cap securely overlapped the glass but approximately 5 mm of space was left between the netting and the filter paper so that the mosquitos could not contact the filter paper.
Assay tubes were placed on a white polystyrene platform with wooden sticks glued flatly across it to prevent the tubes from rolling. A straight black line was drawn down the center of the platform and assay tubes were centered on the line at the beginning of the tests. In repellency assays, data were collected at 15, 30, and 60 minutes after the end caps were placed on the assay tubes. Assay tubes were not disturbed for the entire 60 minutes. At each time point, the number of mosquitos that remained on the treated side was visually assessed and recorded. The treated side was alternated with each set of tests. For repellency tests, DEET at a dose of 100 μg/cm^2 served as the positive control.
For the high-throughput in vitro screening assays, analyses were conducted with R version 4.2.2 statistical software (R Core Team, 2022, “R: a language and environment for statistical computing. R foundation for statistical computing,” Vienna, Austria). Concentrations were calculated in terms of filter paper surface area (μg/cm^2) for repellency assays and in terms of assay tube volume (μg/cm^3) for knockdown assays.
Half-repellent (RD50), half-knockdown (KD50), and half-lethal (LD50) doses were calculated from dose-response curves (DRCs) obtained by four-parameter log-logistic equation models generated using the drc package (Dose Response Curve Analyses Software; Ritz C. et al., 2015, “Dose-response analysis using R,” PLOS ONE 10: e0146021). For repellency test analysis, the upper and lower asymptotes for the proportion of mosquitos remaining on the treated side were fixed at 0.5 and 0, respectively. For KD and mortality test analysis, the upper and lower asymptotes for the proportion of mosquitos knocked down or killed were fixed at 1.0 and 0, respectively. To determine whether RD50, KD50, or LD50 values differed across compounds at each timepoint, a joint model assuming different values for each compound and a null model that assumed a single value for all compounds were compared with a likelihood ratio test.

[3] = system: female Aedes aegypti adults; settings: estimated from a previous report (Licciardi 2006); cited from earlier work
[4] = system: female Aedes aegypti adults; assay: High-throughput in vitro screening assay, knockdown and mortality; settings: for KD50 (30 min), half-knockdown dose / KD50 (60 min), half-knockdown dose: dose per assay tube volume, 95% CI; for time at which knockdown began: FIG. 6A, 6B, 6D; for knockdown and mortality activities (in words): in vivo
[5] = system: Aedes aegypti larvae central nervous system; assay: Neurophysiological experiment, nerve firing of mosquito central nervous system
Procedure: Neurophysiological Experiment—Action on Mosquito Central Nervous System All compounds were screened at 100 μM on the central nervous system of 4th instar Aedes aegypti larvae. Nerve firing was reported as the percentage firing compared to a pre-application baseline period that was determined approximately 3 minutes prior to drug application, similar to methods outlined in Norris, E. J. and Bloomquist J. R. (2021, “Recording central neurophysiological output from mosquito larvae for neuropharmacological and insecticide resistance studies,” J. Insect Physiol. 135: 104319). […] Compound potency was characterized by “time-to-nerve block” defined as the first time point where significant nerve block was observed compared to the vehicle control via a Student T-test, p<0.05 as shown in Table 1 and FIG. 2.
as §1

[6] = at 25.00° C.; cited from earlier work
[7] = literature evaluations; cited from earlier work
Vapor pressure = type: physicochemical; settings: MFA versus MDMA

SMILES	Minimum Effective Dose (MED) [1]	KD50 (30 min), half-knockdown dose [4] [µg/mL]	KD50 (60 min), half-knockdown dose [4] [µg/mL]	30-minute RD50 compared with that of DEET [2]	RD50 (30 min), half-repellent dose [2] [μg/cm^2]	RD50 (60 min), half-repellent dose [2] [μg/cm^2]	spatial repellency (in words) [2]	topical repellency (in words) [1]	knockdown and mortality activities (in words) [4]	also measured
CCN(CC)C(=O)c1cccc(C)c1 [DEET, N,N-diethyl-meta-toluamide, reference compound]	0.0100±0.003 mg/cm^2 and 0.0100 mg/cm^2	>15	>15							mosquitoes repelled ([2]; 60 minutes, dose of 100 μg/cm^2): 100%; dose at which knockdown might begin [3]: approximately 15 μg/cm^3
COC(=O)c1ccccc1OC [M2MOB, methyl 2-methoxybenzoate]	0.049 mg/cm^2	>7	>7	not significantly different from that of DEET						Time to nerve block ([5]; 100 μM on central nervous system of 4th instar larvae): 24 min
COC(=O)c1ccccc1[N+](=O)[O-] [M2NB, methyl 2-nitrobenzoate]	0.025 mg/cm^2	>7	>7	not significantly different from that of DEET						
COC(=O)c1ccccc1N(C)C [MDMA, methyl N,N-dimethyl anthranilate]	0.039 mg/cm^2			significantly lower than that of DEET	6.58					vapor pressure [6]: 0.01 mmHg
COC(=O)c1ccccc1NC=O [MFA, methyl N-formylanthranilate]	0.047 mg/cm^2				>100	>100	did not show spatial repellencies			vapor pressure [6]: 0.000013 mmHg; safety (in words) [7]: No adverse effects to humans have been found; vapor pressure, times lower than that of MDMA (Vapor pressure): 769 times
CC(C)COC(=O)c1ccccc1 [iBB, iso-butyl benzoate]	>0.187 mg/cm^2	5.26	5.29	not significantly different from that of DEET				did not show any topical repellencies	exhibited considerable knockdown and mortality activities	time at which knockdown began [4]: 5 min
CC(C)CCOC(=O)c1ccccc1 [iPeB, iso-pentyl benzoate]	>0.187 mg/cm^2	3.71	3.40	not significantly different from that of DEET				did not show any topical repellencies	exhibited considerable knockdown and mortality activities	time at which knockdown began [4]: 5 min
CCCCOC(=O)c1ccccc1 [nBB, n-butyl benzoate]	0.148 mg/cm^2		3.09		>100	>100	did not show spatial repellencies	demonstrated repellency at doses lower than 0.187 mg/cm^2 on at least one test subject	exhibited considerable knockdown and mortality activities	time at which knockdown began [4]: 5 min
CCCCCCOC(=O)c1ccccc1 [nHB, n-hexyl benzoate]	>0.187 mg/cm^2	7.06	4.72	not significantly different from that of DEET				did not show any topical repellencies	exhibited considerable knockdown and mortality activities	
CCCCCOC(=O)c1ccccc1 [nPeB, n-pentyl benzoate]	>0.187 mg/cm^2	4.77	3.98	not significantly different from that of DEET				did not show any topical repellencies	exhibited considerable knockdown and mortality activities	nerve block (in words) ([5]; 100 μM, 4th instar larvae): Nerve block was produced by all compounds screened at this concentration, except for compound nPeB
CCCOC(=O)c1ccccc1 [nPrB, n-propyl benzoate]	0.250 mg/cm^2				>100	>100	did not show spatial repellencies	demonstrated repellency at doses lower than 0.187 mg/cm^2 on at least one test subject		
CCCOC(=O)c1ccccc1NC=O [nPrFA, n-Propyl N-formylanthranilate]	0.0028 mg/cm^2				>100	>100	did not show any spatial repellencies			MED, times lower than the initial screening dose ([1]; relative to initial screening dose of 0.187 mg/cm^2): 64 times
